Source: patent US7223865B2, “Chromogenic compounds, and use thereof as enzyme substrates” (Biomerieux, priority 2003, dated 2007)

Assays:
Type in all cases: cell-based
[1] = test system: Listeria monocytogenes (NCTC 11994); assay: t-BOC-L-alanyl-L-alanyl-L-alanyl-peptidase activity on gelled medium, Example 11; set-up: key to growth: ++ means good growth; + means moderate growth; +/− means poor growth; NG means no growth
Method: (§1) A gelled medium comprising this substrate is prepared as follows: 30 mg of the substrate are dissolved (heating) in 10 ml of sterile distilled water. Ten ml of this solution are then added to 90 ml of Columbia agar, kept molten at 50° C.
(§2) Various strains of microorganisms derived from the NCTC collection (National Collection of Type Cultures, Colindale, UK) were seeded onto the media thus obtained according to the multipoint inoculation described in example 8 above.
(§3) The colonies formed were examined visually after incubation for 24 h and 48 h. The color and the growth of these colonies were noted.

[2] = test system: Salmonella typhimurium (NCTC 74); assay: as above; set-up: key to growth: ++ means good growth; + means moderate growth; +/− means poor growth; NG means no growth
Method: as §1, §2, §3

[3] = test system: Enterobacter cloacae (NCTC 11936); assay: as above; set-up: key to growth: ++ means good growth; + means moderate growth; +/− means poor growth; NG means no growth
Method: as §1, §2, §3

[4] = test system: Serratia marcescens (NCTC 10211); assay: as above; set-up: key to growth: ++ means good growth; + means moderate growth; +/− means poor growth; NG means no growth
Method: as §1, §2, §3

[5] = test system: Staphylococcus aureus (NCTC 11939); assay: as above; set-up: key to growth: ++ means good growth; + means moderate growth; +/− means poor growth; NG means no growth
Method: as §1, §2, §3

[6] = test system: Enterococcus faecalis (NCTC 12697); assay: as above; set-up: key to growth: ++ means good growth; + means moderate growth; +/− means poor growth; NG means no growth
Method: as §1, §2, §3

[7] = test system: Shigella sonnei (NCTC 9774); assay: as above; set-up: key to growth: ++ means good growth; + means moderate growth; +/− means poor growth; NG means no growth
Method: as §1, §2, §3

[8] = test system: Escherichia coli O157 (NCTC 12079); assay: as above; set-up: key to growth: ++ means good growth; + means moderate growth; +/− means poor growth; NG means no growth
Method: as §1, §2, §3

[9] = test system: Klebsiella pneumonia (NCTC 10896); assay: as above; set-up: key to growth: ++ means good growth; + means moderate growth; +/− means poor growth; NG means no growth
Method: as §1, §2, §3

[10] = test system: Burkholderia cepacia (NCTC 10743); assay: as above; set-up: key to growth: ++ means good growth; + means moderate growth; +/− means poor growth; NG means no growth
Method: as §1, §2, §3

[11] = test system: Enterococcus faecium (NCTC 7171); assay: as above; set-up: key to growth: ++ means good growth; + means moderate growth; +/− means poor growth; NG means no growth
Method: as §1, §2, §3

[12] = test system: Salmonella poona (NCTC 4840); assay: as above; set-up: key to growth: ++ means good growth; + means moderate growth; +/− means poor growth; NG means no growth
Method: as §1, §2, §3

[13] = test system: Pseudomonas aeruginosa (NCTC 10662); assay: as above; set-up: key to growth: ++ means good growth; + means moderate growth; +/− means poor growth; NG means no growth
Method: as §1, §2, §3

[14] = test system: Staphylococcus aureus (NCTC 6571); assay: as above; set-up: key: ++ means good growth; + means moderate growth; +/− means poor growth; NG means no growth
Method: as §1, §2, §3

[15] = test system: Enterococcus faecalis (NCTC 755); assay: as above; set-up: key: ++ means good growth; + means moderate growth; +/− means poor growth; NG means no growth
Method: as §1, §2, §3

[16] = test system: Listeria monocytogenes (NCTC 11994); assay: glycine-aminopeptidase activity on gelled medium, Example 10; set-up: key to growth: ++ means good growth; + means moderate growth; +/− means poor growth; NG means no growth
Method: as §1, §2, §3

[17] = test system: Salmonella typhimurium (NCTC 74); assay: as above; set-up: key to growth: ++ means good growth; + means moderate growth; +/− means poor growth; NG means no growth
Method: as §1, §2, §3

[18] = test system: Enterobacter cloacae (NCTC 11936); assay: as above; set-up: key to growth: ++ means good growth; + means moderate growth; +/− means poor growth; NG means no growth
Method: as §1, §2, §3

[19] = test system: Serratia marcescens (NCTC 10211); assay: as above; set-up: key to growth: ++ means good growth; + means moderate growth; +/− means poor growth; NG means no growth
Method: as §1, §2, §3

[20] = test system: Staphylococcus aureus (NCTC 11939); assay: as above; set-up: key to growth: ++ means good growth; + means moderate growth; +/− means poor growth; NG means no growth
Method: as §1, §2, §3

[21] = test system: Enterococcus faecalis (NCTC 12697); assay: as above; set-up: key to growth: ++ means good growth; + means moderate growth; +/− means poor growth; NG means no growth
Method: as §1, §2, §3

[22] = test system: Shigella sonnei (NCTC 9774); assay: as above; set-up: key to growth: ++ means good growth; + means moderate growth; +/− means poor growth; NG means no growth
Method: as §1, §2, §3

[23] = test system: Escherichia coli O157 (NCTC 12079); assay: as above; set-up: key to growth: ++ means good growth; + means moderate growth; +/− means poor growth; NG means no growth
Method: as §1, §2, §3

[24] = test system: Klebsiella pneumonia (NCTC 10896); assay: as above; set-up: key to growth: ++ means good growth; + means moderate growth; +/− means poor growth; NG means no growth
Method: as §1, §2, §3

[25] = test system: Burkholderia cepacia (NCTC 10743); assay: as above; set-up: key to growth: ++ means good growth; + means moderate growth; +/− means poor growth; NG means no growth
Method: as §1, §2, §3

[26] = test system: Enterococcus faecium (NCTC 7171); assay: as above; set-up: key to growth: ++ means good growth; + means moderate growth; +/− means poor growth; NG means no growth
Method: as §1, §2, §3

[27] = test system: Salmonella poona (NCTC 4840); assay: as above; set-up: key to growth: ++ means good growth; + means moderate growth; +/− means poor growth; NG means no growth
Method: as §1, §2, §3

[28] = test system: Pseudomonas aeruginosa (NCTC 10662); assay: as above; set-up: key to growth: ++ means good growth; + means moderate growth; +/− means poor growth; NG means no growth
Method: as §1, §2, §3

[29] = test system: Staphylococcus aureus (NCTC 6571); assay: as above; set-up: key: ++ means good growth; + means moderate growth; +/− means poor growth; NG means no growth
Method: as §1, §2, §3

[30] = test system: Escherichia coli (NCTC 14018); assay: as above; set-up: key: ++ means good growth; + means moderate growth; +/− means poor growth; NG means no growth
Method: as §1, §2, §3

[31] = test system: Enterococcus faecalis (NCTC 755); assay: as above; set-up: key: ++ means good growth; + means moderate growth; +/− means poor growth; NG means no growth
Method: as §1, §2, §3

SMILES: C[C@H](NC(=O)OC(C)(C)C)C(=O)N[C@@H](C)C(=O)N[C@@H](C)C(=O)Nc1ccc(-c2c3ccccc3[n+](C)c3ccccc23)cc1.[Cl-] [t-BOC-L-Ala-Ala-Ala-4-AP-10-MA, t-BOC-L-alanyl-L-alanyl-L-alanyl-9-(4-aminophenyl)-10-methylacridine]
- color of colonies ([1]; 24 h): Colorless
- growth ([1]; 24 h): +/−
- color of colonies ([1]; 48 h): Colorless
- growth ([1]; 48 h): +
- color of colonies ([2]; 24 h): Pale orange
- growth ([2]; 24 h): (++)
- color of colonies ([2]; 48 h): Pale orange
- growth ([2]; 48 h): ++
- color of colonies ([3]; 24 h): Orange
- growth ([3]; 24 h): ++
- color of colonies ([3]; 48 h): Orange
- growth ([3]; 48 h): ++
- color of colonies ([4]; 24 h): Orange
- growth ([4]; 24 h): ++
- color of colonies ([4]; 48 h): Orange
- growth ([4]; 48 h): ++
- color of colonies ([5]; 24 h): Colorless
- growth ([5]; 24 h): +
- color of colonies ([5]; 48 h): Colorless
- growth ([5]; 48 h): +
- color of colonies ([6]; 24 h): Colorless
- growth ([6]; 24 h): +/−
- color of colonies ([6]; 48 h): Colorless
- growth ([6]; 48 h): +/−
- color of colonies ([7]; 24 h): Pale orange
- growth ([7]; 24 h): (++)
- color of colonies ([7]; 48 h): Pale orange
- growth ([7]; 48 h): ++
- color of colonies ([8]; 24 h): Pale orange
- growth ([8]; 24 h): (++)
- color of colonies ([8]; 48 h): Pale orange
- growth ([8]; 48 h): ++
- color of colonies ([9]; 24 h): Orange
- growth ([9]; 24 h): ++
- color of colonies ([9]; 48 h): Orange
- growth ([9]; 48 h): ++
- color of colonies ([10]; 24 h): Orange
- growth ([10]; 24 h): ++
- color of colonies ([10]; 48 h): Orange
- growth ([10]; 48 h): ++
- color of colonies ([11]; 24 h): Colorless
- growth ([11]; 24 h): +/−
- color of colonies ([11]; 48 h): Colorless
- growth ([11]; 48 h): ++
- color of colonies ([12]; 24 h): Pale orange
- growth ([12]; 24 h): (++)
- color of colonies ([12]; 48 h): Pale orange
- growth ([12]; 48 h): ++
- color of colonies ([13]; 24 h): Pale orange
- growth ([13]; 24 h): (++)
- color of colonies ([13]; 48 h): Pale Orange
- growth ([13]; 48 h): ++
- growth ([14]; 24 h): NG
- growth ([14]; 48 h): NG
- growth ([15]; 24 h): NG
- growth ([15]; 48 h): NG

SMILES: C[n+]1c2ccccc2c(-c2ccc(NC(=O)CN)cc2)c2ccccc21.[Cl-] [G-4-AP-10-MA, glycyl-9-(4-aminophenyl)-10-methylacridine]
- color of colonies ([16]; 24 h): Colorless
- growth ([16]; 24 h): +
- color of colonies ([16]; 48 h): Colorless
- growth ([16]; 48 h): +
- color of colonies ([17]; 24 h): Pale orange
- growth ([17]; 24 h): (++)
- color of colonies ([17]; 48 h): Pale orange
- growth ([17]; 48 h): ++
- color of colonies ([18]; 24 h): Orange
- growth ([18]; 24 h): ++
- color of colonies ([18]; 48 h): Orange
- growth ([18]; 48 h): ++
- color of colonies ([19]; 24 h): Orange
- growth ([19]; 24 h): ++
- color of colonies ([19]; 48 h): Orange
- growth ([19]; 48 h): ++
- color of colonies ([20]; 24 h): Colorless
- growth ([20]; 24 h): +
- color of colonies ([20]; 48 h): Colorless
- growth ([20]; 48 h): +
- color of colonies ([21]; 24 h): Colorless
- growth ([21]; 24 h): +
- color of colonies ([21]; 48 h): Colorless
- growth ([21]; 48 h): +
- color of colonies ([22]; 24 h): Orange
- growth ([22]; 24 h): ++
- color of colonies ([22]; 48 h): Orange
- growth ([22]; 48 h): ++
- color of colonies ([23]; 24 h): Orange
- growth ([23]; 24 h): ++
- color of colonies ([23]; 48 h): Orange
- growth ([23]; 48 h): ++
- color of colonies ([24]; 24 h): Orange
- growth ([24]; 24 h): ++
- color of colonies ([24]; 48 h): Orange
- growth ([24]; 48 h): ++
- color of colonies ([25]; 24 h): Orange
- growth ([25]; 24 h): ++
- color of colonies ([25]; 48 h): Orange
- growth ([25]; 48 h): ++
- color of colonies ([26]; 24 h): Colorless
- growth ([26]; 24 h): +
- color of colonies ([26]; 48 h): Colorless
- growth ([26]; 48 h): +
- color of colonies ([27]; 24 h): Orange
- growth ([27]; 24 h): ++
- color of colonies ([27]; 48 h): Orange
- growth ([27]; 48 h): ++
- color of colonies ([28]; 24 h): Pale orange
- growth ([28]; 24 h): (++)
- color of colonies ([28]; 48 h): Orange
- growth ([28]; 48 h): ++
- growth ([29]; 24 h): NG
- growth ([29]; 48 h): NG
- growth ([30]; 24 h): NG
- growth ([30]; 48 h): NG
- growth ([31]; 24 h): NG
- growth ([31]; 48 h): NG
